Measurements as given in patent publication US20230346827A1 (priority 2020, published 2023).

How the values were obtained:
ALS patients [1] = experiment: ALSFRS-R / clinical observation in ALS patients (Example 15); type: in vivo, human; conditions: five-week treatment period
Experimental: Dextran sulfate (Tikomed AB, Viken, Sweden, WO 2016/076780) was administered at 1 mg/kg by […] subcutaneous injection once a week for five weeks to 13 human patients suffering from ALS.
ALSFRS-R was assessed pre-treatment and weekly thereafter for the 5 treatment weeks and for the visits at the follow-up period.

ALS patients [2] = experiment: Serum metabolites (HPLC) in ALS patients before/after five weekly LMW-DS 1.0 mg/kg s.c. (Example 12); type: in vivo, human; conditions: post- vs pre-treatment
Experimental: After an initial screening visit, patients had five weekly dosing of a single LMW-DS (ILB®, Tikomed AB, Viken, Sweden, WO 2016/076780) injection of 1.0 mg/kg body weight in saline into the subcutaneous fat of the lower abdomen.
Peripheral venous blood samples were been collected from the patients after at least 15 minutes of complete rest, using the standard tourniquet procedure, from the antecubital vein into a single VACUETTE® polypropylene tube containing serum separator and clot activator (Greiner-Bio One GmbH, Kremsmunster, Austria). After 30 minutes at room temperature, blood withdrawals were centrifuged at 1,890 × g for 10 min and the resulting serum samples were stored at -20° C. until analysis.
After defrost, an aliquot of 500 µl of each serum sample was supplemented with 1 ml of HPLC-grade acetonitrile, vortexed for 60 seconds, centrifuged at the maximum speed in a top-bench centrifuge to precipitate proteins. Supernatants were washed with large volumes of HPLC-grade chloroform to remove organic solvent, centrifuged and the upper aqueous phases were transferred in different tubes, clearly labeled to identify the sample and stored at -80° C. until analyzed to determine different water-soluble compounds.
A second aliquot of about 300 µl of each serum sample was light-protected and then processed to extract fat-soluble antioxidants using a method described in detail elsewhere (Lazzarino et al., Single-step preparation of selected biological fluids for the high performance liquid chromatographic analysis of fat-soluble vitamins and antioxidants. J Chromatogr A. 2017; 1527: 43-52.). Briefly, samples were supplemented with 1 ml of HPLC-grade acetonitrile, vigorously vortexed for 60 s and incubated at 37° C. for 1 h in a water bath under agitation, to allow the full extraction of lipid soluble compounds. Samples were then centrifuged at 20,690 × g for 15 min at 4 C to precipitate proteins and the clear supernatants were saved at -80° C. until the HPLC analysis of fat-soluble vitamins and antioxidants.
In deproteinized serum samples, the following water-soluble compounds were separated and quantified by HPLC, according to methods described elsewhere (Tavazzi et al., Simultaneous high performance liquid chromatographic separation of purines, pyrimidines, N-acetylated amino acids, and dicarboxylic acids for the chemical diagnosis of inborn errors of metabolism. Clin Biochem. 2005; 38: 997-1008; Romitelli et al., Comparison of nitrite/nitrate concentration in human plasma and serum samples measured by the enzymatic batch Griess assay, ion-pairing HPLC and ion-trap GC-MS: The importance of a correct removal of proteins in the Griess assay. J Chromatogr B Analyt Technol Biomed Life Sci. 2007; 851: 257-267; Amorini et al., Metabolic profile of amniotic fluid as a biochemical tool to screen for inborn errors of metabolism and fetal anomalies. Mol Cell Biochem. 2012; 359: 205-216): hypoxhantine, xanthine, uric acid, malondialdehyde (MDA), nitrite, nitrate, N-acetylaspartate (NAA), citrulline (CITR), alanine (ALA), and ornithine (ORN).
The following fat-soluble vitamins and antioxidants in deproteinized serum samples were separated and quantified by HPLC according to a method as previously described (Lazzarino et al., Cerebrospinal fluid ATP metabolites in multiple sclerosis. Mult Scler J. 2010; 16: 549-554): α-tocopherol (vitamin E) and γ-tocopherol. In addition to the abovementioned fat-soluble antioxidants and vitamins, also the concentration of total bilirubin was determined in serum samples.
Comparison of the Pre- and Post-treatment subgroups was performed by the two-tailed Student’s t-test for paired samples. The comparison of each subgroup with the group of control healthy subjects was carried out by the two-tailed non-parametric Mann-Whitney U-test for unpaired observations. Differences with p < 0.05 were considered statistically significant.

For sodium salt of dextran sulfate [LMW-DS], the “severe bulbar paresis (two patients)” value (ALS patients [1]) was “almost complete resolution”, the “serum ALA” value (ALS patients [2]) was “normalized” and the “serum CITR” value (ALS patients [2]) was “ameliorated”. The “serum MDA” value (ALS patients [2]) was “decreased”, the “serum NAA” value (ALS patients [2]) was “Significantly lower” and the “serum ORN/CITR ratio” value (ALS patients [2]) was “ameliorated”. The serum nitrate (ALS patients [2]) was “decreased”, the “serum nitrite + nitrate” value (ALS patients [2]) was “decreased” and the “serum sum of oxypurines” value (ALS patients [2]) was “decreased”. The serum total bilirubin (ALS patients [2]) was “decreased”, the serum uric acid (ALS patients [2]) was “decreased” and the “serum α-tocopherol” value (ALS patients [2]) was “ameliorated”. The “serum γ-tocopherol” value (ALS patients [2]) was “ameliorated”.
